Experimental findings from patent US9884868B2, “TGF-beta inhibitors” (Rigel Pharmaceuticals, Inc., priority 2015, dated 2018) are described below.

In one test the target is HIS-TGF-βR2 WT (Homo sapiens (Human), UniProt P37173). The experiment in a line: HTRF probe displacement assay with HIS-TGF-βR2 WT. The settings on record: read-out: TGFBr2 IC50; HTRF probe displacement, 1 nM HIS-TGF-βR2 WT, 1 hour at room temperature. Background: TR-FRET usually uses a lanthanide donor and a delayed reading to cut background.
The next test deals with HIS-TGF-βR1 T204D (Homo sapiens (Human), UniProt P36897, T204D). Nature of the test: HTRF probe displacement assay with HIS-TGF-βR1 T204D. The settings on record: read-out: TGFbr1 IC50; HTRF probe displacement, 1 nM HIS-TGF-βR1 T204D, 1 hour at room temperature.

By IC50 is commonly meant the concentration that inhibits the measured activity by half.

Bounds are passed on as bounds.

Sequence of HIS-TGF-βR2 WT (P37173 23-567): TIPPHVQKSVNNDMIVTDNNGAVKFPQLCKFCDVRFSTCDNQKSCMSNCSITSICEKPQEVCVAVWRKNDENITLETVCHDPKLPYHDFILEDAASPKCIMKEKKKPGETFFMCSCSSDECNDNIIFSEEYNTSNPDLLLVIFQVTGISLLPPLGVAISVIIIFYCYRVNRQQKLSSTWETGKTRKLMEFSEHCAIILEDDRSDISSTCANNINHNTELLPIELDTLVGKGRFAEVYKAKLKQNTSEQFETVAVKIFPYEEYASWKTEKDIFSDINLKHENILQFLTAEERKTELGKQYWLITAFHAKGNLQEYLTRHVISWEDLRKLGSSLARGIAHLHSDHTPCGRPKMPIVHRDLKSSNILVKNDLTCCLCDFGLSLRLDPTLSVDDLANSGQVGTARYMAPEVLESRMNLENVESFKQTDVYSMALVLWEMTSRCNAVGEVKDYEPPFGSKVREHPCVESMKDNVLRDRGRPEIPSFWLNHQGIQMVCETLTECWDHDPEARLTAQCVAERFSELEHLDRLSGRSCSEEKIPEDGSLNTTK
Sequence of HIS-TGF-βR1 T204D (P36897 34-503 T204D): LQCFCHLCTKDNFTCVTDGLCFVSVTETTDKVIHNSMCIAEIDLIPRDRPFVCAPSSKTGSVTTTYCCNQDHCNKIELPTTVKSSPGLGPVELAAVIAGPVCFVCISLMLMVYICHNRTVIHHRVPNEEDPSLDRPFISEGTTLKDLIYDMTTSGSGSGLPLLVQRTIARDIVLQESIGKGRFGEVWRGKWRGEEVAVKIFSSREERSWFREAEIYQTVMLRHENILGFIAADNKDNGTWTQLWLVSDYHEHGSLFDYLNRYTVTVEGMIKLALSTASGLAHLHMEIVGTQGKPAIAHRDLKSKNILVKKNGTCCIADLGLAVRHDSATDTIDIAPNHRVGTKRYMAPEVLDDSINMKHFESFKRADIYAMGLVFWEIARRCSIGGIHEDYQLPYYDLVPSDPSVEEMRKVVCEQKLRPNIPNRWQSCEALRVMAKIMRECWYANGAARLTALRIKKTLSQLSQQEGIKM

Turning to `CS(=O)(=O)Nc1cccc(-c2ncn(CC(F)F)c2-c2ccc3ncc(C#N)n3n2)c1` [252′, N-(3-(5-(3-cyanoimidazo[1,2-b]pyridazin-6-yl)-1-(2,2-difluoroethyl)-1H-imidazol-4-yl)phenyl)methanesulfonamide], the figures for the IC50 on HIS-TGF-βR2 WT and at HIS-TGF-βR1 T204D were greater than 15000 nM and 7.7 nM, respectively.

As to `N#Cc1cnc2ccc(-c3c(-c4ccccc4C(F)(F)F)ncn3CC(F)F)nn12` [246′, 6-(1-(2,2-difluoroethyl)-4-(2-(trifluoromethyl)phenyl)-1H-imidazol-5-yl)imidazo[1,2-b]pyridazine-3-carbonitrile], the results for the IC50 on HIS-TGF-βR2 WT and at HIS-TGF-βR1 T204D were greater than 15000 nM and 144 nM, respectively.

On to `CC(=O)NCc1cnc2ccc(-c3c(-c4ccc(F)cc4)ncn3CC(F)F)nn12` [Example 197′, N-((6-(1-(2,2-difluoroethyl)-4-(4-fluorophenyl)-1H-imidazol-5-yl)imidazo[1,2-b]pyridazin-3-yl)methyl)acetamide], for which the figures for the IC50 on HIS-TGF-βR2 WT and at HIS-TGF-βR1 T204D were greater than 15000 nM and 11.9 nM, respectively.

With `N#Cc1cnc2ccc(-c3c(-c4ccc(F)c(C(F)(F)F)c4)ncn3CC(F)F)nn12` [260′, 6-(1-(2,2-difluoroethyl)-4-(4-fluoro-3-(trifluoromethyl)phenyl)-1H-imidazol-5-yl)imidazo[1,2-b]pyridazine-3-carbonitrile], the IC50 on HIS-TGF-βR2 WT was greater than 15000 nM; on HIS-TGF-βR1 T204D it was 8.8 nM.

Consider `N#Cc1cnc2ccc(-c3c(-c4ccc(F)cc4)ncn3[C@@H](CO)CC(F)(F)F)nn12` [28′, (R)-6-(4-(4-fluorophenyl)-1-(4,4,4-trifluoro-1-hydroxybutan-2-yl)-1H-imidazol-5-yl)imidazo[1,2-b]pyridazine-3-carbonitrile], for which the IC50 was greater than 15000 nM on HIS-TGF-βR2 WT and 1 nM at HIS-TGF-βR1 T204D.

In the case of `NC(=O)c1cnc2ccc(-c3c(-c4ccc(F)cc4)ncn3CC(O)C(F)(F)F)cn12` (stereo not drawn) [169′, 6-(4-(4-fluorophenyl)-1-(3,3,3-trifluoro-2-hydroxypropyl)-1H-imidazol-5-yl)imidazo[1,2-a]pyridine-3-carboxamide], the IC50 is greater than 15000 nM on HIS-TGF-βR2 WT and 21.3 nM at HIS-TGF-βR1 T204D.

Turning to `CCOC(=O)c1cnc2ccc(-c3c(-c4ccc(F)cc4)ncn3CC(F)F)cn12` [274C′, ethyl 6-(1-(2,2-difluoroethyl)-4-(4-fluorophenyl)-1H-imidazol-5-yl)imidazo[1,2-a]pyridine-3-carboxylate], the IC50 at HIS-TGF-βR2 WT is greater than 15000 nM; on HIS-TGF-βR1 T204D, 7 nM.

On to `CN(C)C(=O)c1cnc2ccc(-c3c(-c4ccc(F)cc4)ncn3CC(F)F)nn12` [207′, 6-(1-(2,2-difluoroethyl)-4-(4-fluorophenyl)-1H-imidazol-5-yl)-N,N-dimethylimidazo[1,2-b]pyridazine-3-carboxamide], for which the IC50 at HIS-TGF-βR2 WT was greater than 15000 nM; on HIS-TGF-βR1 T204D, 3 nM.

Turning to `NC(=O)CNC(=O)c1cnc2ccc(-c3c(-c4ccc(F)cc4)ncn3CC(F)F)cn12` [280′], the IC50 was greater than 15000 nM on HIS-TGF-βR2 WT and 3.2 nM on HIS-TGF-βR1 T204D.

Regarding `O=C(NCc1cnc2ccc(-c3c(-c4ccc(F)cc4)ncn3CC(F)F)nn12)C1CC1` [Example 198′, N-((6-(1-(2,2-difluoroethyl)-4-(4-fluorophenyl)-1H-imidazol-5-yl)imidazo[1,2-b]pyridazin-3-yl)methyl)cyclopropanecarboxamide], the IC50 at HIS-TGF-βR2 WT is greater than 15000 nM; on HIS-TGF-βR1 T204D, 5.3 nM.

Turning to `CC(C)(O)c1cccc(-c2ncn(CC(F)F)c2-c2ccc3ncc(C#N)n3n2)c1` [265′, 6-(1-(2,2-difluoroethyl)-4-(3-(2-hydroxypropan-2-yl)phenyl)-1H-imidazol-5-yl)imidazo[1,2-b]pyridazine-3-carbonitrile], the IC50 at HIS-TGF-βR2 WT was greater than 15000 nM; on HIS-TGF-βR1 T204D, 9.8 nM.

On to `CS(=O)(=O)c1cccc(-c2ncn(CC(F)F)c2-c2ccc3ncc(C#N)n3n2)c1` [254′, 6-(1-(2,2-difluoroethyl)-4-(3-(methylsulfonyl)phenyl)-1H-imidazol-5-yl)imidazo[1,2-b]pyridazine-3-carbonitrile], for which the IC50 was greater than 15000 nM at HIS-TGF-βR2 WT and 752 nM on HIS-TGF-βR1 T204D.
